Assay results: patent publication EP4603105A1, “PHARMACEUTICAL COMPOSITION CONTAINING CYCLIC COMPOUND HAVING SELECTIVE KRAS INHIBITORY EFFECT AGAINST HRAS AND NRAS” (CHUGAI SEIYAKU KABUSHIKI KAISHA, priority 2022, dated 2024)
*1 amine or outer side, *2 acyl side, *3 side chain or, on linkers, in order; H or OH if unused. Where a SMILES comes first, the peptide text is derived from it. Bridges are numbered along the chain shown (N, C = ends). [ ]: non-standard residue; d: D form. The star is where a group is joined. hPhe(3-Cl-4-CF3) = N[C@@H](CCc1ccc(C(F)(F)F)c(Cl)c1)C(=O)O; NPrPhe(4-CF3) = CCCN[C@@H](Cc1ccc(C(F)(F)F)cc1)C(=O)O; X49 = Cc1ccc(C[C@@H](C(=O)[*:2])N(CC2CC2)[*:1])cc1; NMeGly(cPent) = CN[C@H](C(=O)O)C1CCCC1; Hyp = O=C(O)[C@@H]1C[C@@H](O)CN1; NMeD = CN[C@@H](CC(=O)O)C(=O)O; NMeL = CN[C@@H](CC(C)C)C(=O)O; Morpholide = C1CN(*)CCO1; NMeA = CN[C@@H](C)C(=O)O; Ac5c = NC1(C(=O)O)CCCC1; Aze = O=C(O)[C@@H]1CCN1; Ac4c = NC1(C(=O)O)CCC1; NEtG = CCNCC(=O)O; Sar = CNCC(=O)O

Tests used:
[1] = target: GDP-bound NRAS wild-type protein (Homo sapiens, UniProt P01111); experiment: Binding to NRAS by surface plasmon resonance (SPR), KD and KD ratio to KRAS
Summary of the method: (§1)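 Affinity is measured by surface plasmon resonance at 30°C against captured, GDP-loaded RAS carrying a biotinylated Avi tag. Compounds are titrated by single-cycle kinetics, and KD comes from a 1:1 fit.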

[2] = target: HRAS wild-type protein (Homo sapiens, UniProt P01112); experiment: Binding to HRAS by surface plasmon resonance (SPR), KD and KD ratio to KRAS
Summary of the method: as §1

[3] = system: human lung cancer strain NCI-H441; format: cell-based
Summary of the method: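 Readout: […] after the ATP-based reagent. Compound: serial dilutions in dimethyl sulfoxide.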

[4] = ratio of the KD value with respect to GDP-bound NRAS wild-type protein to the KD value with respect to KRAS
[5] = ratio of the KD value with respect to HRAS wild-type protein to the KD value with respect to KRAS
[6] = ratio of KD for GDP-bound NRAS wild-type protein to KD for KRAS
[7] = ratio of KD for HRAS wild-type protein to KD for KRAS

Sequence of GDP-bound NRAS wild-type protein (P01111 whole entry): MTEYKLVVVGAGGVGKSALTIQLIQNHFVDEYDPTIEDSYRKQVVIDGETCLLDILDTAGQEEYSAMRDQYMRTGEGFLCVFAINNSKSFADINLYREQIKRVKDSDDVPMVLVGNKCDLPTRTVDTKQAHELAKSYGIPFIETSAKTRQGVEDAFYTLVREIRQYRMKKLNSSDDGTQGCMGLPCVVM
Sequence of HRAS wild-type protein (P01112 whole entry): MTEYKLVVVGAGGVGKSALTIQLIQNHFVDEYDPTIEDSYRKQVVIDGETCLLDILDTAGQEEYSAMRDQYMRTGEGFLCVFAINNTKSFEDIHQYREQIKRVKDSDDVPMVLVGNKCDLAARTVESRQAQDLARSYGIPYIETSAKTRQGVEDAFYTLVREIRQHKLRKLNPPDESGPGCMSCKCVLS

Compound | IC50 [3] [nM] | NRAS /KRAS [1, 4] | HRAS /KRAS [2, 5] | NRAS /KRAS [1, 6] | HRAS /KRAS [2, 7] | further results
CCO[C@@H]1C[C@H]2C(=O)NC3(CC(C)(C)C3)C(=O)N(C)[C@@H](C(CC)CC)C(=O)N(C)[C@H](C(=O)N(C)C)CC(=O)N(C)[C@@H](C)C(=O)N[C@@H]([C@@H](C)CC)C(=O)N(C)CC(=O)N(C)[C@H]3C/C=C\CCN(C3=O)[C@@H](Cc3ccc(C)cc3)C(=O)N(C)CC(=O)N[C@@H](CCc3ccc(C(F)(F)F)c(Cl)c3)C(=O)N2C1 [PP2150] | 58 | AA (a compound having 20 or more is denoted as AA) | A (a compound having 10 or more and less than 20 is denoted as A) | – | – | –
CCCN1C(=O)CN(C)C(=O)CN(CC)C(=O)[C@H]([C@@H](C)CC)NC(=O)[C@H](CC(C)C)N(C)C(=O)C[C@@H](C(=O)N(C)C)NC(=O)[C@H](C2CCCC2)N(C)C(=O)C2(CCC2)NC(=O)[C@@H]2C[C@@H](OCC)CN2C(=O)[C@H](CCc2ccc(C(F)(F)F)c(Cl)c2)NC(=O)CN(C)C(=O)[C@@H]1Cc1ccc(C(F)(F)F)cc1 [PP0372] ([NMeL]I[NEtG][Sar][NPrPhe(4-CF3)][Sar][hPhe(3-Cl-4-CF3)][Hyp](Et)[Ac4c][NMeGly(cPent)]D-NMe2; lactam N-11) | 34.2 | – | – | B (a compound having 3 or more and less than 10 is denoted as B) | B (a compound having 3 or more and less than 10 is denoted as B) | –
CC[C@H](C)[C@@H]1NC(=O)[C@H](CC(C)C)N(C)C(=O)C[C@@H](C(=O)N2CCOCC2)N(C)C(=O)[C@H](C2CCCC2)N(C)C(=O)C2(CCCC2)NC(=O)[C@@H]2CCCN2C(=O)[C@H](CCc2ccc(C(F)(F)F)c(Cl)c2)NC(=O)CN(C)C(=O)[C@H](Cc2ccc(C)cc2)N(CC2CC2)C(=O)[C@@H]2CCN2C(=O)[C@H](C)N(C)C1=O [PP0057] ([NMeL]I[NMeA][Aze][X49][Sar][hPhe(3-Cl-4-CF3)]P[Ac5c][NMeGly(cPent)][NMeD]-Morpholide; lactam N-11) | 6.2 | – | – | C (A compound having a KD ratio of 0.1 or more and less than 3 is denoted as C) | B (a compound having 3 or more and less than 10 is denoted as B) | –
CC[C@H](C)[C@@H]1NC(=O)[C@H](CC(C)C)N(C)C(=O)C[C@@H](C(=O)N2CCOCC2)N(C)C(=O)[C@H](C2CCCC2)N(C)C(=O)C2(CCC2)NC(=O)[C@@H]2[C@H](OC)CCN2C(=O)[C@H](CCc2cc(F)c(C(F)(F)F)c(F)c2)NC(=O)CN(C)C(=O)[C@H](Cc2ccc(C(F)(F)F)cc2)N2CCCC[C@@H](C2=O)N(C)C(=O)CN(C)C1=O [PP1084] | 83.9 | – | – | C (A compound having a KD ratio of 0.1 or more and less than 3 is denoted as C) | B (a compound having 3 or more and less than 10 is denoted as B) | –

Continued, in another order:

IC50 [3] [nM] | Compound | NRAS /KRAS [1, 4] | HRAS /KRAS [2, 5] | NRAS /KRAS [1, 6] | HRAS /KRAS [2, 7] | further results
1.9 | CCCN1C(=O)CN(C)C(=O)CN(C)C(=O)[C@H]([C@@H](C)CC)NC(=O)[C@H](CC(C)C)N(C)C(=O)C[C@@H](C(=O)N(C)C)N(C)C(=O)[C@H](C2CCCC2)N(C)C(=O)C2(CCCC2)NC(=O)[C@@H]2C[C@@H](OCC)CN2C(=O)[C@H](CCc2ccc(C(F)(F)F)c(Cl)c2)NC(=O)CN(C)C(=O)[C@@H]1Cc1ccc(C(F)(F)F)cc1 [PP0415] ([NMeL]I[Sar][Sar][NPrPhe(4-CF3)][Sar][hPhe(3-Cl-4-CF3)][Hyp](Et)[Ac5c][NMeGly(cPent)][NMeD]-NMe2; lactam N-11) | B (a compound having 3 or more and less than 10 is denoted as B) | B (a compound having 3 or more and less than 10 is denoted as B) | – | – | –
14.7 | CCO[C@@H]1C[C@H]2C(=O)NC3(CCC3)C(=O)N(C)[C@@H](C3CCCC3)C(=O)N(C)[C@H](C(=O)N(CC)CC)CC(=O)N(C)[C@@H](CC(C)C)C(=O)N[C@@H]([C@@H](C)CC)C(=O)N(C)CC(=O)N(C)[C@H]3C/C=C\CCN(C3=O)[C@@H](Cc3ccc(C(F)(F)F)cc3)C(=O)N(C)CC(=O)N[C@@H](CCc3cc(F)c(C(F)(F)F)c(F)c3)C(=O)N2C1 [PP1306] | – | – | – | – | NRAS /KRAS ([1]; ratio of KD with respect to GDP-bound NRAS wild-type protein to KD with respect to KRAS): AA (a compound having 20 or more is denoted as AA); HRAS /KRAS ([2]; ratio of KD with respect to HRAS wild-type protein to KD with respect to KRAS): A (a compound having 10 or more and less than 20 is denoted as A)
17.6 | CCO[C@@H]1C[C@H]2C(=O)NC3(CCC3)C(=O)N(C)[C@@H](C3CCCC3)C(=O)N(C)[C@H](CC)CC(=O)N(C)[C@@H](CC3CC3)C(=O)N[C@@H]([C@@H](C)CC)C(=O)N(C)CC(=O)N(C)[C@H]3C/C=C\CCN(C3=O)C(Cc3ccc(C(F)(F)F)cc3)C(=O)N(C)CC(=O)N[C@@H](CCc3cc(F)c(C(F)(F)F)c(F)c3)C(=O)N2C1 (stereo partly drawn) [PP1631] | – | – | – | – | NRAS /KRAS ([1]; ratio of KD value for GDP-bound NRAS wild-type protein to KD value for KRAS (SPR)): A (a compound having 10 or more and less than 20 is denoted as A); HRAS /KRAS ([2]; ratio of KD value for HRAS wild-type protein to KD value for KRAS (SPR)): B (a compound having 3 or more and less than 10 is denoted as B)
28 | CCCOC[C@H]1C(=O)N[C@@H]([C@@H](C)CC)C(=O)N(C)CC(=O)N(C)[C@H]2C/C=C\CCN(C2=O)[C@@H](Cc2ccc(C(F)(F)F)cc2)C(=O)N(C)CC(=O)N[C@@H](CCc2cc(F)c(C(F)(F)F)c(F)c2)C(=O)N2C[C@@H](C)C[C@H]2C(=O)NC2(CC(C)(C)C2)C(=O)N(C)[C@@H](C2CCCC2)C(=O)N(C)[C@H](C(=O)N(C)CC)CC(=O)N1C [PP2043] | A (a compound having 10 or more and less than 20 is denoted as A) | A (a compound having 10 or more and less than 20 is denoted as A) | – | – | –
